Data published in PubChem BioAssay (NCI).
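Dose response: 5 concentrations. Exposure: 48 h. Format: 96-well plates. Endpoint: linear interpolation; highest concentration if not reached. Abbreviation: GI50, concentration required for 50% inhibition of growth. TGI is the concentration that stops growth completely.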

Key:
Experiment in all cases: NCI-60 cell line screen, 48 h
NCI-H522 lung = tested on: NCI-H522 lung
LXFL 529 NSCLC = tested on: LXFL 529 NSCLC
NCI-H226 lung = tested on: NCI-H226 lung
OVCAR-8 ovarian = tested on: OVCAR-8 ovarian
M19-MEL melanoma = tested on: M19-MEL melanoma
UACC-257 melanoma = tested on: UACC-257 melanoma
M14 melanoma = tested on: M14 melanoma
SK-MEL-5 melanoma = tested on: SK-MEL-5 melanoma
LOX IMVI melanoma = tested on: LOX IMVI melanoma
A549 NSCLC = tested on: A549 NSCLC
HCT-15 colon = tested on: HCT-15 colon
RXF 393 renal = tested on: RXF 393 renal
HCT-116 colon = tested on: HCT-116 colon
SNB-75 CNS = tested on: SNB-75 CNS
SF-295 CNS = tested on: SF-295 CNS
DLD-1 colon = tested on: DLD-1 colon
DMS 273 small cell lung = tested on: DMS 273 small cell lung
SN12C renal = tested on: SN12C renal
SK-MEL-28 melanoma = tested on: SK-MEL-28 melanoma
KM12 colon = tested on: KM12 colon
U251 CNS = tested on: U251 CNS
CCRF-CEM leukemia = tested on: CCRF-CEM leukemia
HCC-2998 colon = tested on: HCC-2998 colon
786-0 renal = tested on: 786-0 renal
HL-60(TB) leukemia = tested on: HL-60(TB) leukemia
MALME-3M melanoma = tested on: MALME-3M melanoma
KM20L2 colon = tested on: KM20L2 colon
RPMI-8226 leukemia = tested on: RPMI-8226 leukemia
UO-31 renal = tested on: UO-31 renal
EKVX NSCLC = tested on: EKVX NSCLC
CAKI-1 renal = tested on: CAKI-1 renal
DMS 114 small cell lung = tested on: DMS 114 small cell lung
K-562 leukemia = tested on: K-562 leukemia
NCI-H460 lung = tested on: NCI-H460 lung
SK-OV-3 ovarian = tested on: SK-OV-3 ovarian
MOLT-4 leukemia = tested on: MOLT-4 leukemia
OVCAR-3 ovarian = tested on: OVCAR-3 ovarian
NCI-H23 lung = tested on: NCI-H23 lung
HOP-62 NSCLC = tested on: HOP-62 NSCLC
HT29 colon = tested on: HT29 colon
SK-MEL-2 melanoma = tested on: SK-MEL-2 melanoma
SNB-19 CNS = tested on: SNB-19 CNS
SF-539 CNS = tested on: SF-539 CNS
OVCAR-4 ovarian = tested on: OVCAR-4 ovarian
A498 renal = tested on: A498 renal
IGROV1 ovarian = tested on: IGROV1 ovarian
SW-620 colon = tested on: SW-620 colon
UACC-62 melanoma = tested on: UACC-62 melanoma
ACHN renal = tested on: ACHN renal
SF-268 CNS = tested on: SF-268 CNS
HOP-92 NSCLC = tested on: HOP-92 NSCLC
SNB-78 CNS = tested on: SNB-78 CNS
COLO 205 colon = tested on: COLO 205 colon
OVCAR-5 ovarian = tested on: OVCAR-5 ovarian
TK-10 renal = tested on: TK-10 renal

O=C(/C=C/c1ccc(Cl)cc1)c1ccc(Cl)c(Cl)c1
TGI (NCI-H522 lung): 42.9 µM
TGI (LXFL 529 NSCLC): 92.5 µM
TGI (NCI-H226 lung): 34.9 µM
TGI (OVCAR-8 ovarian): 47.9 µM
TGI (M19-MEL melanoma): > 100 µM
TGI (UACC-257 melanoma): 98.8 µM
TGI (M14 melanoma): > 100 µM
TGI (SK-MEL-5 melanoma): 68.7 µM
TGI (LOX IMVI melanoma): > 100 µM
TGI (A549 NSCLC): > 100 µM
TGI (HCT-15 colon): > 100 µM
TGI (RXF 393 renal): 72.2 µM
TGI (HCT-116 colon): > 100 µM
TGI (SNB-75 CNS): 61.5 µM
TGI (SF-295 CNS): > 100 µM
TGI (DLD-1 colon): > 100 µM
TGI (DMS 273 small cell lung): > 100 µM
GI50 (SN12C renal): 48 µM
TGI (SN12C renal): > 100 µM
TGI (SK-MEL-28 melanoma): 66.7 µM
GI50 (KM12 colon): 12.2 µM
TGI (KM12 colon): > 100 µM
TGI (U251 CNS): 44.5 µM
TGI (CCRF-CEM leukemia): 50.5 µM
TGI (HCC-2998 colon): > 100 µM
TGI (786-0 renal): > 100 µM
GI50 (HL-60(TB) leukemia): 15.9 µM
TGI (HL-60(TB) leukemia): 45.8 µM
TGI (MALME-3M melanoma): 62.4 µM
TGI (KM20L2 colon): > 100 µM
TGI (RPMI-8226 leukemia): 8.88 µM
TGI (UO-31 renal): 80.9 µM
TGI (EKVX NSCLC): 87.2 µM
TGI (CAKI-1 renal): 53.1 µM
TGI (DMS 114 small cell lung): > 100 µM
TGI (K-562 leukemia): > 100 µM
TGI (NCI-H460 lung): > 100 µM
TGI (SK-OV-3 ovarian): 85.9 µM
TGI (MOLT-4 leukemia): 69.6 µM
TGI (OVCAR-3 ovarian): 48.3 µM
TGI (NCI-H23 lung): 30.2 µM
TGI (HOP-62 NSCLC): 53.9 µM
TGI (HT29 colon): > 100 µM
TGI (SK-MEL-2 melanoma): 47.8 µM
TGI (SNB-19 CNS): 75.5 µM
TGI (SF-539 CNS): 56.9 µM
TGI (OVCAR-4 ovarian): > 100 µM
TGI (A498 renal): > 100 µM
TGI (IGROV1 ovarian): 79.9 µM
GI50 (SW-620 colon): 19.6 µM
TGI (SW-620 colon): > 100 µM
TGI (UACC-62 melanoma): 70 µM
TGI (ACHN renal): > 100 µM
TGI (SF-268 CNS): > 100 µM

Cc1nc(-c2nc(C)c(C(=O)/C=C/c3ccc([N+](=O)[O-])cc3)s2)sc1C(=O)/C=C/c1ccc([N+](=O)[O-])cc1
TGI (LXFL 529 NSCLC): > 100 µM
TGI (NCI-H226 lung): > 100 µM
TGI (OVCAR-8 ovarian): > 100 µM
TGI (M19-MEL melanoma): > 100 µM
TGI (UACC-257 melanoma): > 100 µM
TGI (M14 melanoma): > 100 µM
TGI (SK-MEL-5 melanoma): > 100 µM
TGI (LOX IMVI melanoma): > 100 µM
TGI (A549 NSCLC): > 100 µM
TGI (HCT-15 colon): > 100 µM
TGI (HOP-92 NSCLC): > 100 µM
TGI (RXF 393 renal): > 100 µM
TGI (HCT-116 colon): > 100 µM
TGI (SNB-75 CNS): > 100 µM
TGI (SF-295 CNS): > 100 µM
TGI (DLD-1 colon): > 100 µM
TGI (SNB-78 CNS): > 100 µM
TGI (SN12C renal): > 100 µM
TGI (SK-MEL-28 melanoma): > 100 µM
TGI (KM12 colon): > 100 µM
TGI (U251 CNS): > 100 µM
TGI (HCC-2998 colon): > 100 µM
TGI (786-0 renal): > 100 µM
TGI (HL-60(TB) leukemia): > 100 µM
TGI (MALME-3M melanoma): > 100 µM
TGI (COLO 205 colon): > 100 µM
TGI (KM20L2 colon): > 100 µM
TGI (OVCAR-5 ovarian): > 100 µM
TGI (RPMI-8226 leukemia): > 100 µM
TGI (UO-31 renal): > 100 µM
TGI (EKVX NSCLC): > 100 µM
TGI (CAKI-1 renal): > 100 µM
TGI (TK-10 renal): > 100 µM
TGI (DMS 114 small cell lung): > 100 µM
TGI (K-562 leukemia): > 100 µM
TGI (NCI-H460 lung): > 100 µM
TGI (SK-OV-3 ovarian): > 100 µM
TGI (MOLT-4 leukemia): > 100 µM
TGI (OVCAR-3 ovarian): > 100 µM
TGI (NCI-H23 lung): > 100 µM
TGI (HOP-62 NSCLC): > 100 µM
TGI (HT29 colon): > 100 µM
TGI (SK-MEL-2 melanoma): > 100 µM
TGI (SNB-19 CNS): > 100 µM
TGI (SF-539 CNS): > 100 µM
TGI (A498 renal): > 100 µM
TGI (IGROV1 ovarian): > 100 µM
TGI (SW-620 colon): > 100 µM
TGI (UACC-62 melanoma): > 100 µM
TGI (ACHN renal): > 100 µM
TGI (SF-268 CNS): > 100 µM

Cc1cc2c(=O)cc(-c3cccs3)oc2c(C(=O)O)c1C
TGI (NCI-H522 lung): 48.4 µM
TGI (LXFL 529 NSCLC): > 100 µM
TGI (OVCAR-8 ovarian): > 100 µM
TGI (M19-MEL melanoma): > 100 µM
TGI (UACC-257 melanoma): > 100 µM
TGI (M14 melanoma): > 100 µM
TGI (SK-MEL-5 melanoma): > 100 µM
TGI (LOX IMVI melanoma): > 100 µM
TGI (A549 NSCLC): > 100 µM
TGI (HCT-15 colon): > 100 µM
TGI (HOP-92 NSCLC): > 100 µM
TGI (HCT-116 colon): > 100 µM
TGI (SNB-75 CNS): 37.6 µM
TGI (SF-295 CNS): > 100 µM
TGI (DLD-1 colon): > 100 µM
TGI (DMS 273 small cell lung): > 100 µM
TGI (SN12C renal): > 100 µM
TGI (SK-MEL-28 melanoma): > 100 µM
TGI (KM12 colon): > 100 µM
TGI (U251 CNS): > 100 µM
TGI (CCRF-CEM leukemia): > 100 µM
TGI (HCC-2998 colon): > 100 µM
TGI (786-0 renal): > 100 µM
TGI (MALME-3M melanoma): > 100 µM
TGI (COLO 205 colon): > 100 µM
TGI (KM20L2 colon): > 100 µM
TGI (OVCAR-5 ovarian): > 100 µM
TGI (RPMI-8226 leukemia): > 100 µM
TGI (UO-31 renal): > 100 µM
TGI (EKVX NSCLC): > 100 µM
TGI (TK-10 renal): > 100 µM
TGI (K-562 leukemia): > 100 µM
TGI (NCI-H460 lung): > 100 µM
TGI (SK-OV-3 ovarian): > 100 µM
TGI (MOLT-4 leukemia): > 100 µM
TGI (OVCAR-3 ovarian): > 100 µM
TGI (NCI-H23 lung): > 100 µM
TGI (HOP-62 NSCLC): > 100 µM
TGI (HT29 colon): > 100 µM
TGI (SK-MEL-2 melanoma): > 100 µM
TGI (SNB-19 CNS): > 100 µM
TGI (OVCAR-4 ovarian): > 100 µM
TGI (A498 renal): > 100 µM
TGI (IGROV1 ovarian): > 100 µM
TGI (SW-620 colon): > 100 µM
TGI (UACC-62 melanoma): > 100 µM
TGI (ACHN renal): > 100 µM
TGI (SF-268 CNS): > 100 µM
